# Measurements taken from patent US20240425524A1, “SPIROTRICYCLE RIPK1 INHIBITORS AND METHODS OF USES THEREOF” (Merck Sharp & Dohme LLC, priority 2021, published 2024).
# Molecular target: RIPK1 (Homo sapiens (Human), UniProt Q13546)
# Assay: RIPK1-ADP-Glo Enzymatic Assay
# Format: biochemical
# Details: recombinant GST-RIPK1 kinase domain (residues 1-327), 25 nM, ten-point titration, 30 minutes pre-incubation
# How it was run: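 GST-RIPK1 kinase domain (residues 1-327, Sf21-expressed; 25 nM final) was pre-incubated 30 min at ambient temperature with compound (10-point 1:3 series from 100000 nM, 1% DMSO) in HEPES pH 7.3 buffer with 20 mM MgCl2. The reaction was started with 900 μM ATP (addition solution) and 3 μM dephosphorylated MBP and ran 150 min. Read-out was ADP-Glo luminescence, with EC50 from a four-parameter fit.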
# Sequence of RIPK1 (Q13546 1-327): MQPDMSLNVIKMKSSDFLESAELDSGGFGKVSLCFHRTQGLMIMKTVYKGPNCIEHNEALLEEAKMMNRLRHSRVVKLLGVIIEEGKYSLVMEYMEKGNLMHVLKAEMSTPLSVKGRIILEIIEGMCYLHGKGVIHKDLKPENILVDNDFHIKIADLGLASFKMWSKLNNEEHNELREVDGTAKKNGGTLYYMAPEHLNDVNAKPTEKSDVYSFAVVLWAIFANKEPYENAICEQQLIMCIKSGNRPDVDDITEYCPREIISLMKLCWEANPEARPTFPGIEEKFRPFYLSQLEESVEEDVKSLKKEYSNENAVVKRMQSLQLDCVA
row,EC50 [µM],SMILES
1,0.594,"Cn1ccc(C(=O)N2CCC3(CC2)CN2CC[C@@H](c4cc(F)cc(F)c4)N2C3=O)n1 [Example 4.6, (S)-7′-(3,5-difluorophenyl)-1-(1-methyl-1H-pyrazole-3-carbonyl)dihydro-1′H,3′H,5′H-spiro[piperidine-4,2′-pyrazolo[1,2-a]pyrazol]-l′-one]"
2,0.211,"N#Cc1cc(F)cc(C(=O)N2CCC3(CC2)CN2CC[C@@H](c4cc(F)cc(F)c4)N2C3=O)c1 [Example 4.7, (S)-3-(7′-(3,5-difluorophenyl)-1′-oxodihydro-1′H,3′H,5′H-spiro[piperidine-4,2′-pyrazolo[1,2-a]pyrazole]-1-carbonyl)-5-fluorobenzonitrile]"
3,0.158,"Cc1c(F)cccc1C(=O)N1CCC2(CC1)CN1CC[C@@H](c3cc(F)cc(F)c3)N1C2=O [Example 4.8, (S)-7′-(3,5-difluorophenyl)-1-(3-fluoro-2-methylbenzoyl)dihydro-1′H,3′H,5′H-spiro[piperidine-4,2′-pyrazolo[1,2-a]pyrazol]-l′-one]"
4,0.031,"O=C(c1c(F)ccc(F)c1F)N1CCC2(CC1)CN1CC[C@@H](c3cc(F)cc(F)c3)N1C2=O [Example 4.9, (S)-7′-(3,5-difluorophenyl)-1-(2,3,6-trifluorobenzoyl) dihydro-1′H,3′H,5′H-spiro[piperidine-4,2′-pyrazolo[1,2-a]pyrazol]-l′-one]"
5,0.067,"O=C(c1cc(F)c(F)c(F)c1)N1CCC2(CC1)CN1CC[C@@H](c3cc(F)cc(F)c3)N1C2=O [Example 4.10, (S)-7′-(3,5-difluorophenyl)-1-(3,4,5-trifluorobenzoyl) dihydro-1′H,3′H,5′H-spiro[piperidine-4,2′-pyrazolo[1,2-a]pyrazol]-l′-one]"
6,0.019,"O=C(c1cc(F)c(F)cc1F)N1CCC2(CC1)CN1CC[C@@H](c3cc(F)cc(F)c3)N1C2=O [Example 4.11, (S)-7′-(3,5-difluorophenyl)-1-(2,4,5-trifluorobenzoyl) dihydro-1′H,3′H,5′H-spiro[piperidine-4,2′-pyrazolo[1,2-a]pyrazol]-l′-one]"
7,0.026,"O=C(c1cc(F)cc(F)c1F)N1CCC2(CC1)CN1CC[C@@H](c3cc(F)cc(F)c3)N1C2=O [Example 4.12, (S)-7′-(3,5-difluorophenyl)-1-(2,3,5-trifluorobenzoyl) dihydro-1′H,3′H,5′H-spiro[piperidine-4,2′-pyrazolo[1,2-a]pyrazol]-l′-one]"
8,0.335,"Cc1ccc(F)cc1C(=O)N1CCC2(CC1)CN1CC[C@@H](c3cc(F)cc(F)c3)N1C2=O [Example 4.13, (S)-7′-(3,5-difluorophenyl)-1-(5-fluoro-2-methylbenzoyl) dihydro-1′H,3′H,5′H-spiro[piperidine-4,2′-pyrazolo[1,2-a]pyrazol]-l′-one]"
9,0.858,"N#Cc1ccc(C(=O)N2CCC3(CC2)CN2CC[C@@H](c4cc(F)cc(F)c4)N2C3=O)cc1F [Example 4.15, (S)-4-(7′-(3,5-difluorophenyl)-1′-oxodihydro-1′H,3′H,5′H-spiro[piperidine-4,2′-pyrazolo[1,2-a]pyrazole]-1-carbonyl)-2-fluorobenzonitrile]"
10,0.083,"COc1ccc(C(=O)N2CCC3(CC2)CN2CC[C@@H](c4cc(F)cc(F)c4)N2C3=O)cc1F [Example 4.16, (S)-7′-(3,5-difluorophenyl)-1-(3-fluoro-4-methoxybenzoyl) dihydro-l′H,3′H,5′H-spiro[piperidine-4,2′-pyrazolo[1,2-a]pyrazol]-l′-one]"
11,0.446,"O=C(c1cncc(F)c1)N1CCC2(CC1)CN1CC[C@@H](c3cc(F)cc(F)c3)N1C2=O [Example 4.17, (S)-7′-(3,5-difluorophenyl)-1-(5-fluoronicotinoyl) dihydro-1′H,3′H,5′H-spiro[piperidine-4,2′-pyrazolo[1,2-a]pyrazol]-l′-one]"
12,0.018,"Cc1cc(F)cc(C(=O)N2CCC3(CC2)CN2CC[C@@H](c4cc(F)cc(F)c4)N2C3=O)c1 [Example 4.18, (S)-7′-(3,5-difluorophenyl)-1-(3-fluoro-5-methylbenzoyl) dihydro-1′H,3′H,5′H-spiro[piperidine-4,2′-pyrazolo[1,2-a]pyrazol]-l′-one]"
13,0.018,"O=C(c1cc(F)cc(Cl)c1)N1CCC2(CC1)CN1CC[C@@H](c3cc(F)cc(F)c3)N1C2=O [Example 4.19, (S)-1-(3-chloro-5-fluorobenzoyl)-7′-(3,5-difluorophenyl) dihydro-1′H,3′H,5′H-spiro[piperidine-4,2′-pyrazolo[1,2-a]pyrazol]-l′-one]"
14,0.05,"O=C(c1cc(F)ccc1Cl)N1CCC2(CC1)CN1CC[C@@H](c3cc(F)cc(F)c3)N1C2=O [Example 4.20, (S)-1-(2-chloro-5-fluorobenzoyl)-7′-(3,5-difluorophenyl) dihydro-1′H,3′H,5′H-spiro[piperidine-4,2′-pyrazolo[1,2-a]pyrazol]-l′-one]"
15,0.015,"O=C(c1cc(F)ccc1F)N1CCC2(CC1)CN1CC[C@@H](c3cc(F)cc(F)c3)N1C2=O [Example 4.21, (S)-1-(2,5-difluorobenzoyl)-7′-(3,5-difluorophenyl) dihydro-1′H,3′H,5′H-spiro[piperidine-4,2′-pyrazolo[1,2-a]pyrazol]-l′-one]"
16,0.046,"Cc1ccc(C(=O)N2CCC3(CC2)CN2CC[C@@H](c4cc(F)cc(F)c4)N2C3=O)cc1F [Example 4.22, (S)-7′-(3,5-difluorophenyl)-1-(3-fluoro-4-methylbenzoyl) dihydro-1′H,3′H,5′H-spiro[piperidine-4,2′-pyrazolo[1,2-a]pyrazol]-l′-one]"
17,0.023,"O=C(c1ccc(Cl)c(F)c1)N1CCC2(CC1)CN1CC[C@@H](c3cc(F)cc(F)c3)N1C2=O [Example 4.23, (S)-1-(4-chloro-3-fluorobenzoyl)-7′-(3,5-difluorophenyl) dihydro-1′H,3′H,5′H-spiro[piperidine-4,2′-pyrazolo[1,2-a]pyrazol]-l′-one]"
18,0.032,"O=C(c1ccc(F)c(F)c1)N1CCC2(CC1)CN1CC[C@@H](c3cc(F)cc(F)c3)N1C2=O [Example 4.24, (S)-1-(3,4-difluorobenzoyl)-7′-(3,5-difluorophenyl) dihydro-1′H,3′H,5′H-spiro[piperidine-4,2′-pyrazolo[1,2-a]pyrazol]-l′-one]"
19,0.035,"O=C(c1cccc(F)c1)N1CCC2(CC1)CN1CC[C@@H](c3cc(F)cc(F)c3)N1C2=O [Example 4.25, (S)-7′-(3,5-difluorophenyl)-1-(3-fluorobenzoyl) dihydro-1′H,3′H,5′H-spiro[piperidine-4,2′-pyrazolo[1,2-a]pyrazol]-l′-one]"
20,0.023,"Cc1cc(F)c(C(=O)N2CCC3(CC2)CN2CC[C@@H](c4cc(F)cc(F)c4)N2C3=O)cc1F [Example 4.26, (S)-1-(2,5-difluoro-4-methylbenzoyl)-7′-(3,5-difluorophenyl) dihydro-1′H,3′H,5′H-spiro[piperidine-4,2′-pyrazolo[1,2-a]pyrazol]-l′-one]"
21,0.026,"COc1cc(F)cc(C(=O)N2CCC3(CC2)CN2CC[C@@H](c4cc(F)cc(F)c4)N2C3=O)c1 [Example 4.27, (S)-7′-(3,5-difluorophenyl)-1-(3-fluoro-5-methoxybenzoyl) dihydro-l′H,3′H,5′H-spiro[piperidine-4,2′-pyrazolo[1,2-a]pyrazol]-l′-one]"
22,0.036,"O=C(c1cccc(F)c1Cl)N1CCC2(CC1)CN1CC[C@@H](c3cc(F)cc(F)c3)N1C2=O [Example 4.28, (S)-1-(2-chloro-3-fluorobenzoyl)-7′-(3,5-difluorophenyl)dihydro-1′H,3′H,5′H-spiro[piperidine-4,2′-pyrazolo[1,2-a]pyrazol]-l′-one]"
23,0.023,"O=C(c1cccc(F)c1F)N1CCC2(CC1)CN1CC[C@@H](c3cc(F)cc(F)c3)N1C2=O [Example 4.29, (S)-1-(2,3-difluorobenzoyl)-7′-(3,5-difluorophenyl) dihydro-1′H,3′H,5′H-spiro[piperidine-4,2′-pyrazolo[1,2-a]pyrazol]-l′-one]"
24,0.139,"COC(=O)N1CCC2(CC1)CN1CC[C@@H](c3cc(F)cc(F)c3)N1C2=O [Example 5.2, methyl (S)-7′-(3,5-difluorophenyl)-1′-oxodihydro-1′H,3′H,5′H-spiro [piperidine-4,2′-pyrazolo[1,2-a]pyrazole]-1-carboxylate]"
25,0.83,"O=C1N2[C@H](c3cc(F)cc(F)c3)CCN2CC12CCN(S(=O)(=O)c1ccccc1)CC2 [Example 5.3, (S)-7′-(3,5-difluorophenyl)-1-(phenylsulfonyl) dihydro-l′H,3′H,5′H-spiro[piperidine-4,2′-pyrazolo[1,2-a]pyrazol]-l′-one]"

row,SMILES,EC50 [µM]
1,"COc1ccc(F)cc1C(=O)N1CCC2(CC1)CN1CC[C@@H](c3cc(F)cc(F)c3)N1C2=O [Example 4.14, (S)-7′-(3,5-difluorophenyl)-1-(5-fluoro-2-methoxybenzoyl) dihydro-l′H,3′H,5′H-spiro[piperidine-4,2′-pyrazolo[1,2-a]pyrazol]-l′-one]",0.386
2,O=C(c1ccccc1)N1CCC2(CC1)CN1CC[C@@H](c3cc(F)cc(F)c3)N1C2=O [Example 5.1],0.013
3,"O=C1N2[C@H](c3cc(F)cc(F)c3)CCN2CC12CCN(Cc1ccc3ccccc3n1)CC2 [Example 6.1, (S)-7′-(3,5-difluorophenyl)-1-(quinolin-2-ylmethyl) dihydro-1′H,3′H,5′H-spiro [piperidine-4,2′-pyrazolo[1,2-α]pyrazol]-1′-one]",0.706
4,N#Cc1ccc(N2CCC3(CC2)CN2CC[C@@H](c4cc(F)cc(F)c4)N2C3=O)n2nccc12 [Example 7.1],0.006
5,"O=C1N2[C@H](c3cc(F)cc(F)c3)CCN2CC12CCN(c1ccc(Cl)c3ccnn13)CC2 [Example 8.1, (S)-1-(4-chloropyrazolo[1,5-α]pyridin-7-yl)-7′-(3,5-difluorophenyl) dihydro-1′H,3′H,5′H-spiro [piperidine-4,2′-pyrazolo[1,2-α]pyrazol]-1′-one]",0.007
